Assay [1] has as its system THP-1 cells. Nature of the assay: MCP-1 mediated calcium flux in THP-1 cells. Conditions: stimulation of THP-1 cells, FURA-2, approximate; read-out: EC50 for rise in [Ca2+]i. The format is cell-based, human. As for the experimental part:
The human monocytic cell line THP-1 was grown in a synthetic cell culture medium RPMI 1640 supplemented with 10% foetal calf serum, 6 mM glutamine and Penicillin-Streptomycin (at 50 μg streptomycin/ml, Gibco BRL). THP-1 cells were washed in HBSS (lacking Ca^2+ and Mg^2+)+1 mg/ml BSA and resuspending in the same buffer at a density of 3×10^6 cells/ml. The cells were then loaded with […] FURA-2/AM for 30 min at 37° C., washed twice in HBSS, and resuspended in 1×10^6 cells/ml. THP-1 cell suspension (0.9 ml) was added to a 5 ml disposable curvette containing a magnetic stirrer bar and 2.1 ml of prewarmed (37° C.) HBSS containing 1 mg/ml BSA, 1 mM MgCl2 and 2 mM CaCl2. The cuvette was placed in a fluorescence spectrophootmeter (Perkin Elmer, Norwalk, Conn.) and preincubated for 4 min at 37° C. with stirring. Fluorescence was recorded over 70 sec and cells wre stimulated by addition of hMCP-1 to the curvette after 10 sec. [Ca^2+]i was measured by excitation at 340 nm and 380 nm alternately and subsequent measurement of the intensity of the fluorescence emission at 510 nm. […] Rmax is the maximal fluorescence ratio determined after additional of […] lonomycin, […] ratio determined by the subsequent addition of a Ca^2+ free solution containing 5 mM EGTA, and Sf2/Sb2 is the ratio of fluorescence values at 380 nm excitation determined at Rmin and Rmax, respectively. […]

In assay [2] the test system is THP-1 cells. Nature of the assay: hMCP-1 mediated chemotaxis of THP-1 cells. Conditions: biphasic response. The format is cell-based, human. As to the method: In vitro chemotaxis assays were performed using the human monocytic cell line THP-1. Cell migration through polycarbonate membranes was measured by enumerating those passing through either directly by Coulter counting or indirectly by use of a colourimetric viability assay measuring the cleavage of a tetrazolium salt by the microchondrial respiratory chain (Scudiero D. A. et al. 1988, Cancer Res., 48, 4827-4833).
Chemoattractants were introduced into a 96-well microtiter plate which forms the lower well of a chemotaxis chamber fitted with a PVP-free 5 μm poresize polycarbonate adhesive framed filter membrane (NeuroProbe MB series, Cabin John, MD 20818, USA) according to the manufacturer's instructions. […] The plate was incubated at 37° C. for 3 h and the absorbance of the soluble formazan product was read on a microtiter plate reader at 450 nm. The data was input into a spreadsheet, corrected for any random migration in the absence of chemoattractant and the average absorbance values, standard error of the mean, and significance tests were calculated. hMCP-1 induced concentration dependent cell migration with a characteristic biphasic response, maximal […].

The next assay addresses T1, MCP-1 receptor B (CCR2B) (Homo sapiens, UniProt P41597).
T1 construct: expressed in transfected cells; membrane fragments
T1 sequence (P41597 1-360 isoform P41597-2): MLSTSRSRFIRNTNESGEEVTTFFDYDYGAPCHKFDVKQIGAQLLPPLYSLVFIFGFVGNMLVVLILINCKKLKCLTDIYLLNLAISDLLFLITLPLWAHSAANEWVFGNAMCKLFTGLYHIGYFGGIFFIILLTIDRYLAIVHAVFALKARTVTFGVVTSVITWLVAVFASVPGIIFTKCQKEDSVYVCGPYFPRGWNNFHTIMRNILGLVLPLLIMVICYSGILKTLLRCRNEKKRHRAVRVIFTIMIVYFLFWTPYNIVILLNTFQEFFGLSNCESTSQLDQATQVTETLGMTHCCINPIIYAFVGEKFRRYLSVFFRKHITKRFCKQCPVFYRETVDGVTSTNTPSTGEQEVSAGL
Briefly: hMCP-1 receptor binding assay (125I-MCP-1, CHO-CCR2B cell membranes). From the text:
The MCP-1 receptor B (CCR2B) cDNA was cloned by PCR from THP-1 cell RNA using suitable oligonucleotide primers based on the published MCP-1 receptor sequences (Charo et al., 1994, Proc. Natl. Acad. Sci USA, 91, 2752). The resulting PCR products were cloned into vector PCR-II™ (In Vitrogen, San Diego, Calif.). Error free CCR2B cDNA was subcloned as a Hind III-Not I fragment into the eukaryotic expression vector pCDNA3 (In Vitrogen) to generate pCDNA3/CC-CKR2A and pCDNA3/CCR2B respectively.
Linearised pCDNA3/CCR2B DNA was transfected into CHO-K1 cells by calcium phosphate precipitation (Wigler et al., 1979, Cell, 16, 777). Transfected cells were selected by the addition of Geneticin Sulphate (G418, Gibco BRL) at 1 mg/mlo, 24 hours after the cells had been transfected. Preparation of RNA and Norther Blotting were carried out as described previously (Needham et al., 1995, Prot. Express. Purific., 6, 134). CHO-K1 clone 7 (CHO-CCR2B) was identified as the highest MCP-1 receptor B-expressor. […]
^125I MCP-1 was preapred using Bolton and Hunter conjugation (Bolton et al., 1973, Biochem. J., 133, 529; Amersham International plc]. Equilibrium binding assays were carried out using the method of Ernst et al., 1994, J. Immunol., 152, 3541. Briefly, varying amounts of ^125I-labeled MCP-1 were added to 7 μg of purified CHO-CCR2B cell membranes in 100 μl of Binding Buffer. After 1 hour incubation at room temperature the binding reaction mixtures wre filtered and washed 5 times through a plate washer (Brandel MLR-96T Cell Harvester) using ice cold Binding Buffer. Filter mats (Brandel GF/B) were pre-soaked for 60 minutes in 0.3% polyethyleneimine prior to use. Following filtration individual filters were separated into 3.5 ml tubes (Sarsted No. 55.484) and bound ^125I-labeled MCP-1 was determined (LKB 1277 Gammamaster). […] Non-specific binding was determined by the incinsion of a 200-fold molar excess of unlabelled MCP-1 in the reaction. […]

Where two headings read alike, the source gives them in different places.

By EC50 is commonly meant the concentration at which the effect is half-maximal. Usually IC50 stands for the point on the concentration scale where inhibition reaches its midpoint. For orientation: Kd means the concentration at which binding is half-saturated.

Take “MCP-1: Human Monocyte Chemoattractant Protein-1, the chemokine ligand of the CCR2 receptor”: the EC50 in the assay with THP-1 cells [1] is around 2 nM. In addition, in the assay on THP-1 cells [2], the “concentration of maximal cell migration” value is listed as 0.5-1.0 nm. The IC50 in the assay with MCP-1 receptor B (CCR2B) (cold competition, unlabelled MCP-1 vs 100 pM 125I-MCP-1, CHO-CCR2B membrane fragments, read-out: IC50 of MCP-1 binding to CCR2B) was 0.11 nM. Also, the affinity with MCP-1 receptor B (CCR2B) (equilibrium binding, CHO-CCR2B membrane fragments), expressed as Kd, was 0.12 nM.

For the molecule `O=C(CN1CCOCC1)Nc1cccc2c1cc(C(=O)O)n2Cc1ccc(Cl)c(Cl)c1` [Compound 2], on MCP-1 receptor B (CCR2B) (competition with 100 pM labelled MCP-1, CHO-CCR2B membranes, 0.01-50 μM, read-out: IC50 in hMCP-1 receptor binding assay), the half-maximal inhibitory concentration (IC50) turned out to be 1700 nM.

The record behind these values is patent US6911465B1, “Anti-inflammatory indole derivatives” (AstraZeneca AB, priority 1999, dated 2005).
